According to patent publication US20090118332A1, “Therapeutic Agents - 551” (AstraZeneca AB, priority 2006, published 2009):

These compounds were tested against T1, human Fatty Acid Synthase (Homo sapiens, UniProt P49327) (assay: Human FAS enzyme assay (decrease in NADPH fluorescence)). Conditions: % inhibition at a concentration of 100 μmolar.
T1 construct: made in house
Type: biochemical
Outline: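 In-house human FAS was preincubated with compound and NADPH for 15 min at room temperature in 0.1 M Tris pH 7.5 with EDTA, glutathione and BSA. Malonyl CoA and acetyl CoA (500 μM and 150 μM in the added mix) were then added for 60 min. IC50 came from time-zero-subtracted NADPH fluorescence (340/460 nm).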

T1 sequence (P49327 whole entry): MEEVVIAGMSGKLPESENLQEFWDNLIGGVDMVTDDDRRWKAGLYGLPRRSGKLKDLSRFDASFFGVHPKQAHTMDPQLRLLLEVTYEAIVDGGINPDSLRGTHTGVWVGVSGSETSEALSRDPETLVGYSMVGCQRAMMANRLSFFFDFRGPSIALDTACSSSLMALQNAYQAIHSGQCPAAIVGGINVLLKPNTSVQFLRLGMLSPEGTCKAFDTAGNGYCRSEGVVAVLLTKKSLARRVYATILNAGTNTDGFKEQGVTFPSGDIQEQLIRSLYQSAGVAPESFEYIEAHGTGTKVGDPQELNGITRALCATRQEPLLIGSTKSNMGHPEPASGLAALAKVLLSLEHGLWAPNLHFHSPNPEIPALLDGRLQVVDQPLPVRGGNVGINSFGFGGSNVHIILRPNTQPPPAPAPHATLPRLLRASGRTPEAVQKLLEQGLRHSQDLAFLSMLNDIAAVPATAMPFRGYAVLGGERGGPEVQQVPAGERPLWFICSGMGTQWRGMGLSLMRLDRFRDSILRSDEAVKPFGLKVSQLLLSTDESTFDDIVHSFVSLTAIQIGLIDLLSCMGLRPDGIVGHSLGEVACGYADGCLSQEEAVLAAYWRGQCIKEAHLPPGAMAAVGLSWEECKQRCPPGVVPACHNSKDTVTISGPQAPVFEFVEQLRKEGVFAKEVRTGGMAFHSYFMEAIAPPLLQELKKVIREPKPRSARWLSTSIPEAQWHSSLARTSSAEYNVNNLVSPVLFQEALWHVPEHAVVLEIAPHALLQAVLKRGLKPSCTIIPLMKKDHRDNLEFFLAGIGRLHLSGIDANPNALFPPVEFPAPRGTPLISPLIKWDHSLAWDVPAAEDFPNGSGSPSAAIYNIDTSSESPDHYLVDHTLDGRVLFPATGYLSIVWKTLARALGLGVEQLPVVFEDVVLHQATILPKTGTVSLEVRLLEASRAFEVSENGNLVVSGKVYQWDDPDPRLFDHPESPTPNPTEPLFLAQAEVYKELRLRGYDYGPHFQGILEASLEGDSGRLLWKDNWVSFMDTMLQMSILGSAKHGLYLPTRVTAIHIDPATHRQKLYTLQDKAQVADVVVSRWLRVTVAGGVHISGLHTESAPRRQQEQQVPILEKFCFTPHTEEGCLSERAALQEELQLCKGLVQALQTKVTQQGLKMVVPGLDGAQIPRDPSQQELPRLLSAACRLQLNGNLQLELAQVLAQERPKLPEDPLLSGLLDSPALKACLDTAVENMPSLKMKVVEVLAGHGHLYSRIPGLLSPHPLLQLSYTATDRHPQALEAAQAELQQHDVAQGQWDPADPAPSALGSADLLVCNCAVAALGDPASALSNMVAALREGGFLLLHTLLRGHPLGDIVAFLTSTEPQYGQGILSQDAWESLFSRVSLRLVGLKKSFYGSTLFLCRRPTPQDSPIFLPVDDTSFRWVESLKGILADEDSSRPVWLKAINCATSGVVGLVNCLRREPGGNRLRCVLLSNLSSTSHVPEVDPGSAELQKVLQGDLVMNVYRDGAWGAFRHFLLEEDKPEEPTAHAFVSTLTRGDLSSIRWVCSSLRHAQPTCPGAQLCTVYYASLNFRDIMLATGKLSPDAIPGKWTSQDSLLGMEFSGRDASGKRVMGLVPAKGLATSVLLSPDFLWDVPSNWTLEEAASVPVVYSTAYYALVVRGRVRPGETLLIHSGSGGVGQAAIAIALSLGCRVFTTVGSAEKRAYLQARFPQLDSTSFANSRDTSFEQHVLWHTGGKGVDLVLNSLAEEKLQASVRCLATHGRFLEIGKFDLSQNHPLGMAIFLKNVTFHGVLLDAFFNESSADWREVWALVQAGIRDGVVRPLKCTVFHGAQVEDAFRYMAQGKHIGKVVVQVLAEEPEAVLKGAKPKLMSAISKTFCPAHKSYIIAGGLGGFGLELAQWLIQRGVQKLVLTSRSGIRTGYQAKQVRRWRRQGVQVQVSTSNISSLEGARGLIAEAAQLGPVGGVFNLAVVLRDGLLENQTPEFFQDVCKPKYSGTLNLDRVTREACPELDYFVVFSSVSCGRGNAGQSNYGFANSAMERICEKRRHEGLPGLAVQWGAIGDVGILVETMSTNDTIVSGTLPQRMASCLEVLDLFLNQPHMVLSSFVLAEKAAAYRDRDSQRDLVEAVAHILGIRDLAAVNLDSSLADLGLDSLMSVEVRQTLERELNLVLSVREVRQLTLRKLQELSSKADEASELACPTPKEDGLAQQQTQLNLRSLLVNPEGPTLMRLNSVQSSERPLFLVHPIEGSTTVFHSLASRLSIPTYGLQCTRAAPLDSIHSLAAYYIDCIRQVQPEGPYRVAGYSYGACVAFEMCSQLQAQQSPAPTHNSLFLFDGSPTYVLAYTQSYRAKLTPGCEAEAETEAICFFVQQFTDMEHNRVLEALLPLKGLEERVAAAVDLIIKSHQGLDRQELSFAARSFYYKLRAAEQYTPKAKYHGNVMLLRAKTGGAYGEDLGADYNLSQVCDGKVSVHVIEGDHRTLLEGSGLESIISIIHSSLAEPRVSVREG

First: Cc1ccc(C(=O)N2CCC(c3ccc(C#N)cc3)CC2)cc1NC(=O)NCc1ncc(F)cc1F [Example 367, 1-[5-[4-(4-cyanophenyl)piperidine-1-carbonyl]-2-methylphenyl]-3-[(3,5-difluoropyridin-2-yl)methyl]urea]
Second: Cc1ccc(C(=O)N2CCC(c3ccc(C#N)cc3)CC2)cc1NC(=O)NCC(C)C [Example 42, 1-[5-[4-(4-cyanophenyl)piperidine-1-carbonyl]-2-methyl-phenyl]-3-(2-methylpropyl)urea]
The inhibition at 100 µM of the first is higher: 107% for the first, 83.8% for the second.

Compared with `Cc1ccc(C(=O)N2CCC(c3ccc(C#N)cc3)CC2)cc1NC(=O)NC1(CO)CCCC1` [Example 194, 1-[5-[4-(4-cyanophenyl)piperidine-1-carbonyl]-2-methyl-phenyl]-3-[1-(hydroxymethyl)cyclopentyl]urea], `Cc1ccc(C(=O)N2CCC(c3ccc(C#N)cc3)CC2)cc1NC(=O)NC1CCC1` [Example 287, 1-[5-[4-(4-cyanophenyl)piperidine-1-carbonyl]-2-methyl-phenyl]-3-cyclobutyl-urea] is higher in inhibition at 100 µM: 84.3% for the first, 92.4% for the second.

Compared with `CC(C)NC(=O)Nc1ccc(F)c(C(=O)N2CCC(c3ccc(C#N)cc3)CC2)c1` [Example 377, 3-[3-[4-(4-cyanophenyl)piperidine-1-carbonyl]-4-fluorophenyl]-1-propan-2-ylurea], `Cc1ccc(NC(=O)NCc2ccc(C#N)cc2)cc1C(=O)N1CCC(c2ccc(C#N)cc2)CC1` [Example 378, 3-[(4-cyanophenyl)methyl]-1-[3-[4-(4-cyanophenyl)piperidine-1-carbonyl]-4-methylphenyl]urea] is higher in inhibition at 100 µM: 71.1% for the first, 73.2% for the second.

Going from `Cc1ccc(C(=O)N2CCC(c3ccc(C#N)cc3)CC2)cc1NC(=O)NC1CCS(=O)(=O)C1` (stereo not drawn) [Example 169, 1-[5-[4-(4-cyanophenyl)piperidine-1-carbonyl]-2-methyl-phenyl]-3-(1,1-dioxothiolan-3-yl)urea] to `Cc1ccc(C(=O)N2CCC(c3ccc(C#N)cc3)CC2)cc1NC(=O)NC1COC1` [Example 299, 1-[5-[4-(4-cyanophenyl)piperidine-1-carbonyl]-2-methyl-phenyl]-3-(oxetan-3-yl)urea], the inhibition at 100 µM falls from 95.6% to 95.1%.

Compared with `Cc1ccc(C(=O)N2CCC(c3ccc(C(F)(F)F)cc3)CC2)cc1NC(=O)NCCNS(=O)(=O)N(C)C` [Example 340, 3-[2-(dimethylsulfamoylamino)ethyl]-1-[2-methyl-5-[4-[4-(trifluoromethyl)phenyl]piperidine-1-carbonyl]phenyl]urea], `Cc1ccc(C(=O)N2CCC(c3ccc(C#N)cc3)CC2)cc1NC(=O)NCC(C)(C)NS(C)(=O)=O` [Example 202, 1-[5-[4-(4-cyanophenyl)piperidine-1-carbonyl]-2-methyl-phenyl]-3-(2-methanesulfonamido-2-methyl-propyl)urea] is higher in inhibition at 100 µM: 96% for the first, 97.3% for the second.

First: COc1ccc([C@@H](C)NC(=O)Nc2cc(C(=O)N3CCC(c4ccc(C#N)cc4)CC3)ccc2C)cc1 [Example 84, 1-[5-[4-(4-cyanophenyl)piperidine-1-carbonyl]-2-methyl-phenyl]-3-[(1R)-1-(4-methoxyphenyl)ethyl]urea]
Second: Cc1ccc(C(=O)N2CCC(c3ccc(C#N)cc3)CC2)cc1NC(=O)NCc1cccc(S(C)(=O)=O)c1 [Example 247, 1-[5-[4-(4-cyanophenyl)piperidine-1-carbonyl]-2-methyl-phenyl]-3-[(3-methylsulfonylphenyl)methyl]urea]
The inhibition at 100 µM of the first is lower: 92.3% for the first, 101% for the second.

First: Cc1ccc(C(=O)N2CCC(c3ccc(C#N)cc3)CC2)cc1NC(=O)N[C@@H](COC(C)(C)C)C(N)=O [Example 78, (2S)-2-[[5-[4-(4-cyanophenyl)piperidine-1-carbonyl]-2-methyl-phenyl]carbamoylamino]-3-[(2-methylpropan-2-yl)oxy]propanamide]
Second: Cc1ccc(C(=O)N2CCC(c3ccc(C#N)cc3)CC2)cc1NC(=O)NCC(C)(C)NC(=O)C(C)C [Example 263, N-[1-[[5-[4-(4-cyanophenyl)piperidine-1-carbonyl]-2-methyl-phenyl]carbamoylamino]-2-methyl-propan-2-yl]-2-methyl-propanamide]
The inhibition at 100 µM of the first is higher: 85.7% for the first, 79% for the second.

First: Cc1ccc(C(=O)N2CCC(c3ccc(C#N)cc3)CC2)cc1NC(=O)N[C@@H]1CCN(S(C)(=O)=O)C1 [Example 218, 1-[5-[4-(4-cyanophenyl)piperidine-1-carbonyl]-2-methyl-phenyl]-3-[(3R)-1-methylsulfonylpyrrolidin-3-yl]urea]
Second: CCC(=O)N1CC[C@@H](NC(=O)Nc2cc(C(=O)N3CCC(c4ccc(C#N)cc4)CC3)ccc2C)C1 [Example 276, 3-[5-[4-(4-cyanophenyl)piperidine-1-carbonyl]-2-methyl-phenyl]-1-[(3R)-1-propanoylpyrrolidin-3-yl]urea]
The inhibition at 100 µM of the first is lower: 84.4% for the first, 98.2% for the second.

Going from `Cc1ccc(C(=O)N2CCC(c3ccc(C#N)cc3)CC2)cc1NC(=O)NC1CN(C(=O)OC(C)(C)C)C1` [Example 97, tert-butyl 3-[[5-[4-(4-cyanophenyl)piperidine-1-carbonyl]-2-methyl-phenyl]carbamoylamino]azetidine-1-carboxylate] to `Cc1ccc(C(=O)N2CCC(c3ccc(C#N)cc3)CC2)cc1NC(=O)NC1CCN(C(=O)OC(C)(C)C)CC1` [Example 208, tert-butyl 4-[[5-[4-(4-cyanophenyl)piperidine-1-carbonyl]-2-methyl-phenyl]carbamoylamino]piperidine-1-carboxylate], the inhibition at 100 µM falls from 95.5% to 84.9%.

Compared with `Cc1ccc(C(=O)N2CCC(c3ccc(C#N)cc3)CC2)cc1NC(=O)N(C)C1CCN(C)CC1` [Example 393, 3-[5-[4-(4-cyanophenyl)piperidine-1-carbonyl]-2-methylphenyl]-1-methyl-1-(1-methylpiperidin-4-yl)urea], `Cc1ccc(C(=O)N2CCC(c3ccc(C#N)cc3)CC2)cc1NC(=O)NCC1CCOCC1` [Example 17, 1-[5-[4-(4-cyanophenyl)piperidine-1-carbonyl]-2-methyl-phenyl]-3-(oxan-4-ylmethyl)urea] is higher in inhibition at 100 µM: 65.8% for the first, 90.1% for the second.

Going from `CSc1ccc(C(=O)N2CCC(c3ccc(C#N)cc3)CC2)cc1NC(=O)NCc1ccccc1` [Example 363, 3-benzyl-1-[5-[4-(4-cyanophenyl)piperidine-1-carbonyl]-2-methylsulfanylphenyl]urea] to `N#Cc1ccc(C2CCN(C(=O)c3ccc(F)c(NC(=O)NCc4ccccc4)c3)CC2)cc1` [Example 8, 3-benzyl-1-[5-[4-(4-cyanophenyl)piperidine-1-carbonyl]-2-fluoro-phenyl]urea], the inhibition at 100 µM falls from 84.7% to 82.6%.

First: CCc1ccc(C(=O)N2CCC(c3ccc(C#N)cc3)CC2)cc1NC(=O)NCC1COCCO1 (racemic) [Example 259, (RS)-1-[5-[4-(4-cyanophenyl)piperidine-1-carbonyl]-2-ethyl-phenyl]-3-(1,4-dioxan-2-ylmethyl)urea]
Second: CNC(=O)CCNC(=O)Nc1cc(C(=O)N2CCC(c3ccc(C#N)cc3)CC2)ccc1C [Example 179, 3-[[5-[4-(4-cyanophenyl)piperidine-1-carbonyl]-2-methyl-phenyl]carbamoylamino]-N-methyl-propanamide]
The inhibition at 100 µM of the first is higher: 102% for the first, 89.2% for the second.

Compared with `Cc1cc(C)n(CCNC(=O)Nc2cc(C(=O)N3CCC(c4ccc(C#N)cc4)CC3)ccc2C)n1` [Example 76, 1-[5-[4-(4-cyanophenyl)piperidine-1-carbonyl]-2-methyl-phenyl]-3-[2-(3,5-dimethylpyrazol-1-yl)ethyl]urea], `Cc1ccc(C(=O)N2CCC(c3ccc(C#N)cc3)CC2)cc1NC(=O)NCCN(C)C(=O)C(C)C` [Example 271, N-[2-[[5-[4-(4-cyanophenyl)piperidine-1-carbonyl]-2-methyl-phenyl]carbamoylamino]ethyl]-N, 2-dimethyl-propanamide] is lower in inhibition at 100 µM: 97.5% for the first, 93.4% for the second.

First: Cc1ccc(C(=O)N2CCC(c3ccc(F)cc3)CC2)cc1NC(=O)NCCN(C)C(=O)OC(C)(C)C [Example 347, tert-butyl N-[2-[[5-[4-(4-fluorophenyl)piperidine-1-carbonyl]-2-methyl-phenyl]carbamoylamino]ethyl]-N-methyl-carbamate]
Second: Cc1ccc(C(=O)N2CCC(c3ccc(C#N)cc3)CC2)cc1NC(=O)NCCCCNC(=O)OC(C)(C)C [Example 69, tert-butyl N-[4-[[5-[4-(4-cyanophenyl)piperidine-1-carbonyl]-2-methyl-phenyl]carbamoylamino]butyl]carbamate]
The inhibition at 100 µM of the first is lower: 86.3% for the first, 87.9% for the second.

Going from `Cc1cc(C)c(C(=O)N2CCC(c3ccc(C#N)cc3)CC2)cc1NC(=O)NCc1ccccn1` [Example 409, 1-[5-[4-(4-cyanophenyl)piperidine-1-carbonyl]-2,4-dimethylphenyl]-3-(pyridin-2-ylmethyl)urea] to `Cc1ccc(C(=O)N2CCC(c3ccc(C#N)cc3)CC2)cc1NC(=O)NC1Cc2ccncc2NC1=O` (stereo not drawn) [Example 99, 1-[5-[4-(4-cyanophenyl)piperidine-1-carbonyl]-2-methyl-phenyl]-3-(2-oxo-3,4-dihydro-1H-1,7-naphthyridin-3-yl)urea], the inhibition at 100 µM falls from 96.9% to 90.2%.

Going from `Cc1ccc(C(=O)N2CCC(c3ccc(S(N)(=O)=O)cc3)CC2)cc1NC(=O)NC(C)C` [Example 360, 1-[2-methyl-5-[4-(4-sulfamoylphenyl)piperidine-1-carbonyl]phenyl]-3-propan-2-yl-urea] to `Cc1ccc(C(=O)N2CCC(c3ccc(C#N)cc3)CC2)cc1NC(=O)NCCCN(CCO)CCO` [Example 141, 3-[3-(bis(2-hydroxyethyl)amino)propyl]-1-[5-[4-(4-cyanophenyl)piperidine-1-carbonyl]-2-methyl-phenyl]urea], the inhibition at 100 µM falls from 97.3% to 82.1%.

Same assay, conditions: FAS enzyme assay, IC50 from fitted sigmoid curves

With `CC(C)NC(=O)Nc1ccc(S(C)(=O)=O)c(C(=O)N2CCC(c3ccc(C#N)cc3)CC2)c1` [3-[3-[4-(4-cyanophenyl)piperidine-1-carbonyl]-4-methylsulfonylphenyl]-1-propan-2-ylurea] the “IC50, inhibition of human Fatty Acid Synthase” value was “do not have IC50s in the range of about 0.001 μM to about 30 μM”.
